Key:
[1] = test system: neonatal rat ventricular cardiomyocytes (NVCM); assay: Inherent toxicity (LDH release) in NVCM; type: cell-based; design: key to LDH release (inherent toxicity), mean of independent replicates: % of total LDH activity; settings: NVCM; for LTC = lowest toxic concentration: compound alone, n=4; for LDH release (inherent toxicity), mean of independent replicates: Suppl.Fig.4
Description: (§1) The protective effects of the BNS-22 and newly prepared compounds were evaluated using primary cultures of neonatal rat cardiomyocytes isolated in house as previously described. Hearts isolated from 1- to 3-day-old Wistar rats were minced in buffer (1.2 mM MgSO4 · 7H2O, 116 mM NaCl, 5.3 mM KCl, 1.13 mM NaH2PO4 · H2O, 20 mM 4-(2-hydroxyethyl)-1-piperazine ethanesulfonic acid (HEPES), glucose 1 mg/mL) on ice, then serially digested (20 min, six repetitions) at 37 °C with collagenase type II (60 U/mL, Gibco). After 2 h pre-plating in a 150 mm Petri dish per approximately 20 hearts to minimize non-myocyte contamination, cells were plated in 24-well gelatin-coated plates at a density of 400,000 cells per well. Cells were cultured at 37 °C and 5% CO2 in Dulbecco’s modified Eagle medium (DMEM)/ F12 culture medium supplemented with 10% horse serum, 5% fetal bovine serum (FBS), 20 mM sodium pyruvate, 50 U/mL penicillin, and 50 μg/mL streptomycin. Freshly isolated cells were left for 40 h to attach and form a culture of spontaneously beating cardiomyocytes, then the medium was changed to DMEM/F12 medium supplemented with 5% fetal bovine serum, 20 mM sodium pyruvate, 50 U/mL penicillin, and 50 μg/mL streptomycin. For the experiments, the medium was changed to serum- and pyruvate-free DMEM/F12 with 50 U/mL penicillin and 50 μg/mL streptomycin. Cardiomyocytes were pretreated with BNS-22 or new compounds for 3 h and then coincubated with DAU (1.2 µM) for another 3 h. After the DAU treatment period, the culture medium was exchanged for the drug-free DMEM/F12 with 50 U/mL penicillin and 50 μg/mL streptomycin for the 48 h follow-up. Experiments to determine the inherent toxicity of each compound studied follow the same schedule, only no DAU was added. Subsequently, the culture medium sample was taken from each well for evaluation of lactate dehydrogenase (LDH) activity. The total LDH activity of each sample for normalization was measured after 1 h of incubation at 37 °C in lysis buffer (0.1 M potassium phosphate, 1% Triton X-100, 1 mM dithiothreitol (DTT), 2 mM EDTA, pH 7.8, 15 min in RT). All samples were immediately analyzed in Tris HCl buffer (pH 8.9) containing 35 mM lactic acid and 5 mM NAD^+. The rate of NAD^+ reduction was monitored spectrophotometrically at 340 nm for 2 min. The slope of the linear region was calculated, and the results were expressed as a percentage of the total LDH. Each presented data point was obtained from distinct sample.

[2] = test system: neonatal rat ventricular cardiomyocytes (NVCM); assay: Protection against DAU-induced cytotoxicity (LDH release) in NVCM; type: cell-based; design: key to Suppl.Fig.3 DAU-induced cytotoxicity (LDH release) in NVCM, mean of independent replicates / LDH release (DAU-induced cytotoxicity), mean of independent replicates: % of total LDH activity; settings: for minimal effective concentration: Rattus norvegicus, Cardiomyocyte, NVCM, protection against DAU 1.2 µM, n=4, read-out: LEC = lowest effective concentration
Description: as §1

SMILES	LTC = lowest toxic concentration [1]	LDH release (inherent toxicity), mean of independent replicates ([1]; compound alone 0.01 µM)	LDH release (inherent toxicity), mean of independent replicates ([1]; compound alone 0.1 µM)	LDH release (inherent toxicity), mean of independent replicates ([1]; compound alone 1 µM)	LDH release (inherent toxicity), mean of independent replicates ([1]; compound alone 10 µM)	LDH release (inherent toxicity), mean of independent replicates ([1]; compound alone 30 µM)	minimal effective concentration [2]	Suppl.Fig.3 DAU-induced cytotoxicity (LDH release) in NVCM, mean of independent replicates ([2]; compound 0.01 µM + DAU 1.2 µM)	Suppl.Fig.3 DAU-induced cytotoxicity (LDH release) in NVCM, mean of independent replicates ([2]; compound 0.1 µM + DAU 1.2 µM)	Suppl.Fig.3 DAU-induced cytotoxicity (LDH release) in NVCM, mean of independent replicates ([2]; compound 1 µM + DAU 1.2 µM)	Suppl.Fig.3 DAU-induced cytotoxicity (LDH release) in NVCM, mean of independent replicates ([2]; compound 10 µM + DAU 1.2 µM)	Suppl.Fig.3 DAU-induced cytotoxicity (LDH release) in NVCM, mean of independent replicates ([2]; compound 30 µM + DAU 1.2 µM)	LDH release (inherent toxicity), mean of independent replicates ([1]; compound alone 100 µM)	Suppl.Fig.3 DAU-induced cytotoxicity (LDH release) in NVCM, mean of independent replicates ([2]; compound 100 µM + DAU 1.2 µM)
CCCCc1cc(=O)oc2c(C(=O)N3CCCc4ccccc43)c(OC)ccc12 [3d]	> 30 µM	14.5175	14.1948	16.3261	19.5649	19.0356	1 µM	50.7769	40.2805	35.9225	25.0218	30.6397		
CCCOc1ccc2c(C)cc(=O)oc2c1C(=O)N1CCCc2ccccc21 [4a]	> 30 µM		13.7469	13.1211	16.3565	19.993	10 µM		45.8753	42.086	32.6284	30.3987		
CCCOc1ccc2c(CC)cc(=O)oc2c1C(=O)N1CCCc2ccccc21 [4b]		14.7625	14.2064	13.8348	17.7301	17.7791	0.1 µM	47.614	43.0735	30.3899	27.961	25.8835	17.3487	28.6308
CCCCc1cc(=O)oc2c(C(=O)N3CCCc4ccccc43)c(OCCC)ccc12 [4d]	10 µM	17.8445	15.2686	16.9179	31.7424	60.5761	1 µM	36.4234	31.1377	25.022	40.2951	73.3675	70.9323	78.9691
Cc1cc(=O)oc2c(C(=O)N3CCCc4ccccc43)c(OCCO)ccc12 [5a]				12.9508	15.8869	14.1719	30 µM			47.2456	46.8582	41.4003	15.685	38.7405
CCCCc1cc(=O)oc2c(C(=O)N3CCCc4ccccc43)c(OCCO)ccc12 [5d]		16.4804	15.5556	15.5462	19.8205	25.0146		44.6742	41.2776	35.4099	33.3492	35.9089	27.0966	42.7736

Source: article PMC12116762, “Topobexin targets the Topoisomerase II ATPase domain for beta isoform-selective inhibition and anthracycline cardioprotection” (Nature Communications, 2025)
